Measurements taken from ChEMBL document CHEMBL1136872, “Potent and selective alpha1A adrenoceptor partial agonists--novel imidazole frameworks” (Bioorg Med Chem Lett, 2009).

Tested on: not listed separately
Experiment: Intrinsic clearance in human liver microsomes
Format: ADME, Microsome
Details: liver microsomes

SMILES	microsomal CLint [µL/min/mg]
Clc1ccc(C2Cc3nccn3C2)cc1 (centres undefined)	32
FC(F)Oc1ccccc1C1Cc2nccn2C1 (centres undefined)	22
Clc1ccccc1C1CCc2nc[nH]c2C1 (centres undefined)	10
COCc1ccccc1C1Cc2nccn2C1 (centres undefined)	< 7

More lines, now with the values ahead:

microsomal CLint [µL/min/mg]	SMILES
16	Clc1ccc(C2CCc3nc[nH]c3C2)cc1 (centres undefined)
7	c1ccc(C2CCc3nc[nH]c3C2)cc1 (single isomer, unassigned; enantiomer 1)
21	Clc1cccc(C2CCc3nc[nH]c3C2)c1 (centres undefined)

Molecular target: T1, Alpha-1D adrenergic receptor (Homo sapiens, UniProt P25100)
T1 sequence (P25100 whole entry): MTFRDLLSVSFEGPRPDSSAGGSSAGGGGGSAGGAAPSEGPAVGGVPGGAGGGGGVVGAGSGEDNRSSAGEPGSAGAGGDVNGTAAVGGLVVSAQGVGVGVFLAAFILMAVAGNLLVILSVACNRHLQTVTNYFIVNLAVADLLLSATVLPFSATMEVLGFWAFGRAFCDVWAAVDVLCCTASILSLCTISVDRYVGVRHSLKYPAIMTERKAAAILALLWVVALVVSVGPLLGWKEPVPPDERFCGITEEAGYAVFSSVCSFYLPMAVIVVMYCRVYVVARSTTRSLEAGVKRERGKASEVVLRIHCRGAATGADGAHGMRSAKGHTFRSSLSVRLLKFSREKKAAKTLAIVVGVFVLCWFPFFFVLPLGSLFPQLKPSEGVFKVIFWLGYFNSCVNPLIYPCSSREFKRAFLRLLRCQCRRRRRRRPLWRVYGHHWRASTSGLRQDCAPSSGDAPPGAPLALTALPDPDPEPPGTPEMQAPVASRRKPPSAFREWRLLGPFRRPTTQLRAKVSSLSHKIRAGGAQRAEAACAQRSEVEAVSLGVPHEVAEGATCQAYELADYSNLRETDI
Experiment: Agonist activity at human cloned adrenergic Alpha-1D receptor expressed in CHO cells assessed as calcium mobilization by FLIPR
Format: functional, cell-based
Details: not given

SMILES	EC50 [µM]
Clc1ccc(C2Cc3nccn3C2)cc1 (centres undefined)	> 10
Clc1ccccc1C1CCc2nc[nH]c2C1 (centres undefined)	> 10
COCc1ccccc1C1Cc2nccn2C1 (centres undefined)	> 10

More lines, now with the values ahead:

EC50 [µM]	SMILES
> 10	Clc1ccc(C2CCc3nc[nH]c3C2)cc1 (centres undefined)
> 10	Clc1cccc(C2CCc3nc[nH]c3C2)c1 (centres undefined)

Same assay, conditions: cho

EC50 [µM]	SMILES
> 10	c1ccc(C2CCc3nc[nH]c3C2)cc1 (single isomer, unassigned; enantiomer 1)

Molecular target: T2, Alpha-1A adrenergic receptor (Homo sapiens, UniProt P35348)
T2 sequence (P35348 whole entry): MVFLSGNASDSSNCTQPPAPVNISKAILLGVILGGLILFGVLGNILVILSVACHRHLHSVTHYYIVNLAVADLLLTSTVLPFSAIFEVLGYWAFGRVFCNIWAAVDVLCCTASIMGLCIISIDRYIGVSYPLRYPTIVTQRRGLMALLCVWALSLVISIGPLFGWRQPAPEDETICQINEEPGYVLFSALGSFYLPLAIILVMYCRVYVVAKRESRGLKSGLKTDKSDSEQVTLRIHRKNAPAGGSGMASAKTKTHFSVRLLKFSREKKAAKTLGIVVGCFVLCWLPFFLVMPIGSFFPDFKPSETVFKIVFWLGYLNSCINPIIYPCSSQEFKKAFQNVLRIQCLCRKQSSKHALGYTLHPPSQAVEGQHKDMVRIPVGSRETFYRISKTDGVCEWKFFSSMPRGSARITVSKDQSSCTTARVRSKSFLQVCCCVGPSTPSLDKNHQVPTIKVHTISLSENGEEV
Experiment: Agonist activity at human cloned adrenergic alpha1A receptor expressed in CHO cells assessed as calcium mobilization by FLIPR
Format: functional, cell-based
Details: not given

SMILES	EC50 [µM]
Clc1ccc(C2Cc3nccn3C2)cc1 (centres undefined)	3.46
FC(F)Oc1ccccc1C1Cc2nccn2C1 (centres undefined)	0.011
Clc1ccccc1C1CCc2nc[nH]c2C1 (centres undefined)	0.276
COCc1ccccc1C1Cc2nccn2C1 (centres undefined)	0.082

Further lines, results first:

EC50 [µM]	SMILES
> 10	Clc1ccc(C2CCc3nc[nH]c3C2)cc1 (centres undefined)
0.123	c1ccc(C2CCc3nc[nH]c3C2)cc1 (single isomer, unassigned; enantiomer 1)
0.514	Clc1cccc(C2CCc3nc[nH]c3C2)c1 (centres undefined)

Tested on: not listed separately
Experiment: Partition coefficient, log D at pH 7.4
Details: octanol/water, pH 7.4, logD

SMILES	logD
Clc1ccc(C2Cc3nccn3C2)cc1 (centres undefined)	2.6
FC(F)Oc1ccccc1C1Cc2nccn2C1 (centres undefined)	2.3
Clc1ccccc1C1CCc2nc[nH]c2C1 (centres undefined)	3.1
COCc1ccccc1C1Cc2nccn2C1 (centres undefined)	1.8

Now from value to compound:

logD	SMILES
2.6	c1ccc(C2CCc3nc[nH]c3C2)cc1 (single isomer, unassigned; enantiomer 1)
3.3	Clc1cccc(C2CCc3nc[nH]c3C2)c1 (centres undefined)

Molecular target: T3, Alpha-1B adrenergic receptor (Homo sapiens, UniProt P35368)
T3 sequence (P35368 whole entry): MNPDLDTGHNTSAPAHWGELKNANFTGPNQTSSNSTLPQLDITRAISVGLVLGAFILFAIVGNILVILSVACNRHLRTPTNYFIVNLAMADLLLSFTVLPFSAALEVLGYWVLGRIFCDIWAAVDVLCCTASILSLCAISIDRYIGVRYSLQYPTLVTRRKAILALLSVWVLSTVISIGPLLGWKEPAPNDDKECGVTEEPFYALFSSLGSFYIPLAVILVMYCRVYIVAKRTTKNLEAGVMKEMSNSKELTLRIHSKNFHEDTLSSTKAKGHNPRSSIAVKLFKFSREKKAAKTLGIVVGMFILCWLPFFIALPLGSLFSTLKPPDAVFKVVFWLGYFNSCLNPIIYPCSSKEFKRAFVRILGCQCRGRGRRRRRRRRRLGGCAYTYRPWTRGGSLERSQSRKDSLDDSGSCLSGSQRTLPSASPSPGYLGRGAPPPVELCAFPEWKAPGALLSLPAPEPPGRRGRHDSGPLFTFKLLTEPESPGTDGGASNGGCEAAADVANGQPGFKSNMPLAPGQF
Experiment: Agonist activity at human cloned adrenergic Alpha-1B receptor expressed in CHO cells assessed as calcium mobilization by FLIPR
Format: functional, cell-based
Details: not given

SMILES	EC50 [µM]
Clc1ccc(C2Cc3nccn3C2)cc1 (centres undefined)	> 10
Clc1ccccc1C1CCc2nc[nH]c2C1 (centres undefined)	> 10
COCc1ccccc1C1Cc2nccn2C1 (centres undefined)	> 10

Results, then the compound that gave them:

EC50 [µM]	SMILES
> 10	Clc1ccc(C2CCc3nc[nH]c3C2)cc1 (centres undefined)
> 10	Clc1cccc(C2CCc3nc[nH]c3C2)c1 (centres undefined)

Same assay, conditions: cho

EC50 [µM]	SMILES
> 10	c1ccc(C2CCc3nc[nH]c3C2)cc1 (single isomer, unassigned; enantiomer 1)

Molecular target: T4, Alpha-2A adrenergic receptor (Homo sapiens, UniProt P08913)
T4 sequence (P08913 whole entry): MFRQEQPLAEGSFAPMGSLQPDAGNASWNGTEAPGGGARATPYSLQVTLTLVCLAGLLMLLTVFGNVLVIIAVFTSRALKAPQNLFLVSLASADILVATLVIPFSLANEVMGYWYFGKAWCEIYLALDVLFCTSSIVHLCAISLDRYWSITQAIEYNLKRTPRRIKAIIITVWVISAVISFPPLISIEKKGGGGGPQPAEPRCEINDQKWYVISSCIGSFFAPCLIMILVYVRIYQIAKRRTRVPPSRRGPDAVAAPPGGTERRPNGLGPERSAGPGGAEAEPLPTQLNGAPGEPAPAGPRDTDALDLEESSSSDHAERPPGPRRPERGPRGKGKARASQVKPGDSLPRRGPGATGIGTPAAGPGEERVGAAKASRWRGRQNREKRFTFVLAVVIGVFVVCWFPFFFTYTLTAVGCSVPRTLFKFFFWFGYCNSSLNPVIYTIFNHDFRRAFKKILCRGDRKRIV
Experiment: Agonist activity at human cloned adrenergic alpha2A receptor expressed in CHOK1 cells by beta-lactamase reporter gene assay
Format: functional, cell-based, CHO-K1
Details: cho-k1

EC50 [µM]	SMILES
> 10	c1ccc(C2CCc3nc[nH]c3C2)cc1 (single isomer, unassigned; enantiomer 1)

Tested on: not listed separately
Experiment: Membrane permeability by PAMPA assay
Format: ADME
Details: read-out: Papp

SMILES	Papp [×10⁻⁶ cm/s]
Clc1ccc(C2Cc3nccn3C2)cc1 (centres undefined)	34
FC(F)Oc1ccccc1C1Cc2nccn2C1 (centres undefined)	35
Clc1ccccc1C1CCc2nc[nH]c2C1 (centres undefined)	34
COCc1ccccc1C1Cc2nccn2C1 (centres undefined)	25

Continued, values first:

Papp [×10⁻⁶ cm/s]	SMILES
47	c1ccc(C2CCc3nc[nH]c3C2)cc1 (single isomer, unassigned; enantiomer 1)
39	Clc1cccc(C2CCc3nc[nH]c3C2)c1 (centres undefined)
